Tests used:
brain glutathione levels = conditions: 10 g/m^2 intraperitoneally twice daily for 3 days; cited from earlier work
[1] = test system: middle cerebral artery occlusion; assay: Temporary (60 min) middle cerebral artery occlusion and 24 h reperfusion, total infarction volume by TTC staining (Example 2); type: in vivo, rat; conditions: for infarction volume: 60 min occlusion, 24 h reperfusion, mean ± SD
[2] = Serum NAC concentration in rats 5 min post infusion
[3] = rat, in vivo, iv, 1000 mg/kg
[4] = test system: ischemia-reperfusion injuries; assay: Single high dose versus multiple low doses of NAC against ischemia-reperfusion injuries; conditions: single high dose (400-1000 mg/kg) versus multiple low doses
[5] = test system: middle cerebral artery occlusion (MCAO); assay: 60 minute transient MCAO in rats, infarcted area on TTC stained brain slices (Example 1); type: in vivo, rat
Description: Twenty female Long Evans rats underwent 60 minute transient MCAO. The rats were anesthetized, intubated and mechanically ventilated using 2% Isoflurane, available from Abbott Laboratories, North Chicago, Ill., and oxygen mixture. The left common carotid artery (CCA) and the bifurcation were exposed via midline incision. The branches of the left external carotid artery (ECA) were coagulated, and the ECA stump was mobilized inferiorly, the left pterygopalatine artery was ligated. A blunt tipped 3 cm long segment of a 3-0 monofilament nylon suture, available from Dermalone, United States Surgical, Norwalk, Conn., was introduced into the left internal carotid artery via the left ECA stump, and advanced 2.0-2.2 cm distance from the bifurcation. Then the proximal CCA was ligated temporarily. After the defined occlusion time the animal was re-anesthetized using a mask. The ligation of the CCA was released, and the suture was pulled back and removed allowing reperfusion of the occluded segment. […] The animals were sacrificed 24 h later with intracardiac injection of Pentobarbital. […] The pictures were analyzed using the Scion Image for Windows software (based on NIH Image Software for Macintosh). The non-stained area was outlined, and the area was calculated, as a percentage of the stroked hemisphere. Data were analyzed and graphed using Microsoft Excel Software. […]

SMILES	reduction of brain glutathione levels (brain glutathione levels)	infarction volume in comparison to other groups ([1]; 3 days of BSO pretreatment)	serum NAC concentration ([2]; 400 mg/kg)	serum NAC concentration ([2]; 1000 mg/kg) [mM]	serum NAC concentration ([2]; about 140 mg/kg) [mM]	transient decrease of mean arterial blood pressure (Long-Evans, rat, in vivo, iv) [%]	morbidity or mortality (stroke animals, intravenous 400 mg NAC in 5 min infusion)	toxicity [3]	hematocrit after infusion (from 50%) ([1]; 2500 μl volume intravenous injection in 5 minutes, same for saline) [%]	infarction volume ([1]; Series A: 400 mg/kg i.v. -60 min to MCAO) [mm3]	average reduction of total calculated infarction volume versus saline treated group ([1]; Series A: NAC 60 minutes before occlusion) [%]	infarction volume ([1]; Series B: 400 mg/kg i.v. -30 min to MCAO) [mm3]	average protection versus saline ([1]; Series B: NAC 30 minutes before occlusion) [%]	infarction volume ([1]; Series C: 400 mg/kg i.v. at reperfusion (2 min after)) [mm3]	total volume of infarction versus saline treated group ([1]; Series C: NAC after reperfusion, p=0.84)	protection in comparison to saline controls ([1]; Series D: BSO treated, glutathione depleted animals, p=0.72)	effectiveness in preventing or treating ischemia-reperfusion injuries [4]	infarction versus control group ([5]; 400 mg/kg i.v. 30 min before occlusion, slices 10 and 12 mm from frontal pole, significant only in last slice)	infarcted area smaller than in control group (mean) ([5]; 400 mg/kg i.v. over 15 min starting 30 min before occlusion, slices 6 and 8 mm from frontal pole, 24 h after 60 min MCAO) [%]
CCCCS(=N)(=O)CCC(N)C(=O)O [BSO, L-buthionine-[S,R]-sulfoxamine]	at least 50%	did not result in higher infarction volume	–	–	–	–	–	–	–	–	–	–	–	–	–	–	–	–	–
CC(=O)N[C@@H](CS)C(=O)O [NAC, N-acetylcysteine]	–	–	about 1.5 mM	~10	0.1 to 0.3	10	did not cause significant morbidity or mortality	No toxicity was observed	30	143.40 ± 72	43	176.60 ± 69	34	156.41 ± 27	the difference was not significant	failed to provide significant protection	more effective	the infarction was smaller	38

— patent US20040132666A1, “Administration of free radical scavengers to prevent or treat ischemia-reperfusion injuries” (Oregon Health & Science University, priority 2002, published 2004)
